Tested on: COR L88 complex tumor spheroid viability
Experiment: Anticancer human tumor COR L88 cell line growth inhibition;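 further: compound exposure lasted 7 days before viability readout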;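 on viability, T/C: percent of DMSO vehicle-treated spheroids = 100%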
Conditions: for IC50: curve of first compound; for viability, T/C: stronger effect = lower value
How it was run: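 Complex spheroids of malignant cells with endothelial cells and mesenchymal stem cells; agents alone or combined, from near clinical Cmax (or 10 microM if unknown) down in half-log steps, 0.25% DMSO final.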

[1] = second compound 1 µM, first compound 0.0316 µM
[2] = second compound 1 µM, first compound 0.1 µM
[3] = second compound 1 µM, first compound 0.316 µM
[4] = second compound 1 µM, first compound 1 µM
[5] = second compound 1 µM, first compound 3.16 µM
[6] = second compound 1 µM, first compound 10 µM
[7] = second compound 3.16 µM, first compound 0.0316 µM
[8] = second compound 3.16 µM, first compound 0.1 µM
[9] = second compound 3.16 µM, first compound 0.316 µM
[10] = second compound 3.16 µM, first compound 1 µM
[11] = second compound 3.16 µM, first compound 3.16 µM
[12] = second compound 3.16 µM, first compound 10 µM
[13] = second compound 10 µM, first compound 0.0316 µM
[14] = second compound 10 µM, first compound 0.1 µM
[15] = second compound 10 µM, first compound 0.316 µM
[16] = second compound 10 µM, first compound 1 µM
[17] = second compound 10 µM, first compound 3.16 µM
[18] = second compound 10 µM, first compound 10 µM
[19] = second compound 31.6 µM, first compound 0.0316 µM
[20] = second compound 31.6 µM, first compound 0.1 µM
[21] = second compound 31.6 µM, first compound 0.316 µM
[22] = second compound 31.6 µM, first compound 1 µM
[23] = second compound 31.6 µM, first compound 3.16 µM
[24] = second compound 31.6 µM, first compound 10 µM
[25] = second compound 100 µM, first compound 0.0316 µM
[26] = second compound 100 µM, first compound 0.1 µM
[27] = second compound 100 µM, first compound 0.316 µM
[28] = second compound 100 µM, first compound 1 µM
[29] = second compound 100 µM, first compound 3.16 µM
[30] = second compound 100 µM, first compound 10 µM

Row | Structure (SMILES) | IC50 (second compound 1 µM) [nM] | IC50 (second compound 3.16 µM) [nM] | IC50 (second compound 10 µM) [nM] | IC50 (second compound 31.6 µM) [nM] | IC50 (second compound 100 µM) [nM] | viability, T/C [1] [%] | viability, T/C [2] [%] | viability, T/C [3] [%] | viability, T/C [4] [%] | viability, T/C [5] [%] | viability, T/C [6] [%] | viability, T/C [7] [%] | viability, T/C [8] [%] | viability, T/C [9] [%] | viability, T/C [10] [%] | viability, T/C [11] [%] | viability, T/C [12] [%] | viability, T/C [13] [%] | viability, T/C [14] [%] | viability, T/C [15] [%] | also measured
1 | CC1COCCN1c1cc(-c2ccnn2C)c2ccnc(-c3ccn[nH]3)c2n1 (stereo not given) + Cn1nnc2c(C(N)=O)ncn2c1=O | 159 | 77.4 | < 31.6 | < 31.6 | < 31.6 | 80.7 | 53.9 | 41.1 | 26.6 | 11.2 | 5.06 | 59 | 47.8 | 33.9 | 22.4 | 11.9 | 4.44 | 46.1 | 36.3 | 29.4 | viability, T/C [16]: 18.4%; viability, T/C [17]: 9.76%; viability, T/C [18]: 3.5%; viability, T/C [19]: 41.7%; viability, T/C [20]: 33.8%; viability, T/C [21]: 24.1%; viability, T/C [22]: 16.8%; viability, T/C [23]: 7.93%; viability, T/C [24]: 3.99%; viability, T/C [25]: 34.3%; viability, T/C [26]: 27.8%; viability, T/C [27]: 21.5%; viability, T/C [28]: 12.3%; viability, T/C [29]: 6.89%; viability, T/C [30]: 3.01%
2 | COc1cc(C)[nH]c(=O)c1CN1CCc2c(Cl)cc(C(OC)C3COC3)c(Cl)c2C1=O (stereo not given) + Cn1nnc2c(C(N)=O)ncn2c1=O | > 10000 | > 10000 | 549 | 111 | < 31.6 | 76.1 | 75 | 71.3 | 65.9 | 67.5 | 66.6 | 74 | 74.8 | 63.4 | 71.6 | 69.7 | 68.7 | 62.7 | 57.4 | 48.8 | viability, T/C [16]: 50.3%; viability, T/C [17]: 46.6%; viability, T/C [18]: 43.2%; viability, T/C [19]: 55.5%; viability, T/C [20]: 51.5%; viability, T/C [21]: 39.7%; viability, T/C [22]: 37%; viability, T/C [23]: 33.3%; viability, T/C [24]: 33.6%; viability, T/C [25]: 49%; viability, T/C [26]: 43.5%; viability, T/C [27]: 37.2%; viability, T/C [28]: 35.3%; viability, T/C [29]: 33.3%; viability, T/C [30]: 31.6%
3 | COc1ccc([C@@H](O)c2cc(-c3ncnc4cc(N5CCOCC5)ccc34)c(F)cc2Cl)nn1 + Cn1nnc2c(C(N)=O)ncn2c1=O | 5380 | 8270 | > 10000 | > 10000 | > 10000 | 96.4 | 94.1 | 82 | 78.3 | 61.4 | 36.7 | 92.8 | 104 | 90.9 | 88.2 | 64.3 | 47.2 | 87 | 98.7 | 92 | viability, T/C [16]: 75.1%; viability, T/C [17]: 67.9%; viability, T/C [18]: 54.6%; viability, T/C [19]: 89.3%; viability, T/C [20]: 79.9%; viability, T/C [21]: 84.6%; viability, T/C [22]: 73.9%; viability, T/C [23]: 67.2%; viability, T/C [24]: 51.3%; viability, T/C [25]: 69.9%; viability, T/C [26]: 70.8%; viability, T/C [27]: 68%; viability, T/C [28]: 62.5%; viability, T/C [29]: 58.1%; viability, T/C [30]: 55.4%
